Reference: US20100016213A1, “USE OF A DITERPENOID COMPOUND FOR TREATING DIABETES” (National Taiwan University, priority 2008, published 2010)

Tests used:
Assay type in all cases: in vivo
Normal ICR mice = test: Intraperitoneal glucose tolerance test (IPGTT), normal ICR mice; settings: borapetoside C 5.0 mg/kg
Description: Normal ICR mice and DIO-induced diabetic mice, treated with borapetoside C (5.0 mg/kg), a vehicle control, or glibenclamide (positive control), were subjected to an intraperitoneal glucose tolerance test (IPGTT) as described in Lamont et al., Diabetes 2008; 57: 190-198. More specifically, glucose (2.0 mg/g body weight) was administered via IP injection to normal and DIO mice and blood samples were drawn from the treated mice before and 30, 60, 120, and 150 min after glucose administration for examination of glucose levels.
In normal mice treated with borapetoside C, the vehicle control, and glibenclamide, the basal plasma glucose concentrations were 106.8±4.7 mg/dL, 114.7±4.6 mg/dL, and 104.9±3.1 mg/dL, respectively. Thirty minutes after intraperitoneal glucose injection, the plasma glucose concentration was elevated to 346.2±14.7 mg/dL in vehicle-treated mice, to 292.9±10.9 mg/dL in borapetoside C-treated mice, or to 273.4±13.6 mg/dL in glibenclamide-treated mice.

[1] = test system: DIO-induced diabetic mice; test: Lowering plasma glucose level, intraperitoneal injection, diet-induced obesity diabetic mice (type II diabetes model); settings: for plasma glucose level one hour after treatment: basal (untreated) 174.6±7.7 mg/dL
Description: Normal and diet-induced obesity diabetic mice (“DIO-induced diabetic mice) were administered with borapetoside A (5.0 mg/kg), borapetoside C (5.0 mg/kg), glibenclamide (5.0 mg/kg), metformin (500.0 mg/kg), or a vehicle control via intraperitoneal injection. DIO-induced diabetic mice are a well-known mouse model of type II diabetes (non-insulin dependent). See Liu et al., J Mol. Endocrinol. 2008.
The plasma glucose levels of the treated mice were determined before and one hour after administration. The activities of these compounds for lowering plasma glucose levels were calculated as described above.
Borapetoside C was administered to DIO-induced diabetic mice at 0.1, 1.0, 3.0, and 5.0 mg/kg and the plasma glucose levels were examined before and after administration. The basal plasma glucose concentration in diet-induced diabetic mice (untreated) was 174.6±7.7 mg/dL. One hour after treatment, the plasma glucose levels in mice treated with vehicle control, 0.1 mg/kg borapetoside C, 1.0 mg/kg borapetoside C, 3.0 mg/kg borapetoside C, and 5.0 mg/kg borapetoside C were 172.5±10.9 mg/dL, 170.5±6.8 mg/dL, 127.9±6.0 mg/dL, 121.3±4.3 mg/dL and 119.9±4.6 mg/dL, respectively.

STZ-diabetic mice (IDDM) = test: Lowering plasma glucose levels via oral administration, STZ-diabetic mice; settings: oral 10.0 mg/kg, sixty minutes after treatment, mean ± SEM, six animals
Description: Normal, STZ-induced diabetic mice, and diet-induced diabetic mice were administered orally with 10.0 mg/kg borapetoside C, glibenclamide or metformin as a positive control, and a vehicle control. The plasma glucose levels of the treated mice were determined before and sixty minutes after treatment and the results thus obtained were shown in Table 3 below.

STZ-diabetic mice(IDDM) = test: Glycogen content in skeletal muscle, STZ-diabetic mice; settings: 5 mg/kg i.p., 30 minutes after injection
Description: Normal, STZ-induced diabetic, and DIO-induced diabetic mice were intraeritoneally injected with borapetoside C (5 mg/kg) and Actrapid (0.5 IU/kg; a short-acting insulin provided by Novo Nordisk) or metformin (500 mg/kg). Their glycogen contents in skeletal muscle were determined 30 minutes after injections.

[2] = test system: Diet-induced diabetic (NIDDM) mice; test: Plasma insulin levels before and after treatment (Insulin ELISA), diet-induced diabetic mice; settings: for Plasma insulin, Pre-treatment: before treatment; for Plasma insulin, post-treatment: one hour after treatment
Description: Normal mice, STZ-induced diabetic mice, and diet-induced diabetic mice were administered with a vehicle control, borapetoside A (5.0 mg/kg), borapetoside C (at various doses), glibenclamide (5.0 mg/kg) or metformin (500 mg/kg) by intraperitoneal injection. These mice were examined for their blood insulin levels before and one hour after treatment, using the Insulin(Rat) ELISA kit obtained from Penisula Lab. Inc., San Carlos, Calif., USA.

[3] = test system: DIO-induced diabetic mice; test: Insulin sensitivity: plasma glucose reduction with insulin plus borapetoside C or vehicle, DIO-induced diabetic mice; settings: thirty minutes after insulin
Description: (§1) The effect of borapetoside C on insulin sensitivity was tested following the method described in Liu, et al., Clinical and Experimental Pharmacology and Physiology 2005; 32: 649-654. Normal mice (n=6), STZ-induced diabetic mice (n=5), and DIO-induced diabetic mice (n=7) were treated with insulin at various doses (i.e., 0.1 IU/kg, 0.5 IU/kg, and 1.0 IU/kg) together with either borapetoside C (0.1 mg/kg) or a vehicle control. Their plasma glucose levels were examined before and thirty minutes after insulin administration. The activity of lowering plasma glucose levels (AL) was calculated following the formula described in Example 2 above.

[4] = test system: STZ-induced diabetic mice; test: Insulin sensitivity: plasma glucose reduction with insulin plus borapetoside C or vehicle, STZ-induced diabetic mice; settings: thirty minutes after insulin
Description: as §1

normal mice = test: Lowering plasma glucose level, intraperitoneal injection, normal mice; settings: for Plasma Glucose Level, After / Plasma Glucose Level, Before: Normal mice; for Plasma Glucose Level, After: after treatment; for Plasma Glucose Level, Before: before treatment
Description: Normal and streptozotocin (STZ)-induced diabetic mice were administered with borapetoside A (5.0 mg/kg), borapetoside C (5.0 mg/kg), glibenclamide (5.0 mg/kg), metformin (500.0 mg/kg), or a vehicle control via intraperitoneal injection. STZ-induced diabetic mice are a well-known mouse model of type I diabetes (insulin dependent). See, e.g., Liu I M, et al., Neuroscience Letters 2001; 307: 81-84. Glibenclamide and metformin serve as two positive controls in this study.
The plasma glucose levels of the treated mice were determined before and one hour after administration. The activity of lowering plasma glucose levels (AL) is calculated following the formula: […]
Borapetoside C was administered to normal mice at 0.1, 1.0, 3.0, and 5.0 mg/kg and to STZ-diabetic mice at 0.1, 1.0, 3.0, and 5.0 mg/kg. The plasma glucose levels of the treated mice were examined before and after treatment.

[5] = Borapetoside C 0.1 mg/kg together with Insulin 0.1 IU/kg
[6] = Borapetoside C 0.1 mg/kg together with Insulin 0.5 IU/kg
[7] = Borapetoside C 0.1 mg/kg together with Insulin 1.0 IU/kg

COC(=O)C1=CCC[C@H]2[C@]3(C)C[C@@H](c4ccoc4)OC(=O)[C@@H]3C[C@@H](O[C@@H]3O[C@H](CO)[C@@H](O)[C@H](O)[C@H]3O)[C@@]12C [borapetoside C]
basal plasma glucose concentration (IPGTT) (Normal ICR mice; before glucose injection): 106.8 ± 4.7 mg/dL | plasma glucose levels at 60 min, 120 min, and 150 min versus control mice (IPGTT) (Normal ICR mice; glucose 2.0 mg/g IP): significantly lower | plasma glucose concentration thirty minutes after intraperitoneal glucose injection (IPGTT) (Normal ICR mice; glucose 2.0 mg/g body weight IP, vehicle 346.2±14.7): 292.9 ± 10.9 mg/dL | plasma glucose level one hour after treatment ([1]; 0.1 mg/kg): 170.5 ± 6.8 mg/dL | plasma glucose level one hour after treatment ([1]; 1.0 mg/kg): 127.9 ± 6.0 mg/dL | plasma glucose level one hour after treatment ([1]; 3.0 mg/kg): 121.3 ± 4.3 mg/dL | AL (activity of lowering plasma glucose levels) ([1]; 5.0 mg/kg intraperitoneal injection, one hour after administration): 29.4±1.0% | plasma glucose level one hour after treatment ([1]; 5.0 mg/kg): 119.9 ± 4.6 mg/dL | Activity of lowing plasma glucose levels (%) (STZ-diabetic mice (IDDM)): 17.7 ± 1.7 % | Glycogen content (μmol/g wet weight) (STZ-diabetic mice(IDDM)): 23.2 ± 0.7 μmol/g wet weight | Plasma insulin, Pre-treatment ([2]; 0.1 mg/kg i.p.): 110.3 ± 4.5 pmol/L | Plasma insulin, post-treatment ([2]; 0.1 mg/kg i.p.): 114.0 ± 7.6 pmol/L | Plasma insulin, Pre-treatment ([2]; 0.5 mg/kg i.p.): 116.5 ± 5.7 pmol/L | Plasma insulin, post-treatment ([2]; 0.5 mg/kg i.p.): 174.7 ± 4.8 pmol/L | Plasma insulin, Pre-treatment ([2]; 1.0 mg/kg i.p.): 111.1 ± 2.0 pmol/L | Plasma insulin, post-treatment ([2]; 1.0 mg/kg i.p.): 178.5 ± 14.6 pmol/L | Plasma insulin, Pre-treatment ([2]; 3.0 mg/kg i.p.): 113.2 ± 2.8 pmol/L | Plasma insulin, post-treatment ([2]; 3.0 mg/kg i.p.): 254.0 ± 23.4 pmol/L | Plasma insulin, Pre-treatment ([2]; 5.0 mg/kg i.p.): 107.4 ± 5.5 pmol/L | Plasma insulin, post-treatment ([2]; 5.0 mg/kg i.p.): 255.8 ± 15.9 pmol/L | AL (%) [3, 5]: 24.0 ± 1.1% | AL (%) [3, 6]: 31.6 ± 1.6% | AL (%) [3, 7]: 42.5 ± 0.8 % | AL (%) [4, 5]: 10.5 ± 1.4% | AL (%) [4, 6]: 18.9 ± 2.1% | AL (%) [4, 7]: 32.2 ± 2.1 % | Plasma Glucose Level, After (normal mice; 0.1 mg/kg): 97.7 ± 6.2 mg/dL | Plasma Glucose Level, Before (normal mice; 0.1 mg/kg): 99.7 ± 3.8 mg/dL | Plasma Glucose Level, After (normal mice; 1.0 mg/kg): 82.6 ± 2.9 mg/dL | Plasma Glucose Level, Before (normal mice; 1.0 mg/kg): 96.4 ± 4.2 mg/dL | Plasma Glucose Level, After (normal mice; 3.0 mg/kg): 79.4 ± 6.9 mg/dL | Plasma Glucose Level, Before (normal mice; 3.0 mg/kg): 96.3 ± 8.0 mg/dL | Plasma Glucose Level, After (normal mice; 5.0 mg/kg): 67.0 ± 4.5 mg/dL | Plasma Glucose Level, Before (normal mice; 5.0 mg/kg): 98.2 ± 3.9 mg/dL | Activities of Lowering Plasma Glucose Levels (AL) (normal mice; normal mice, 5.0 mg/kg intraperitoneal injection, one hour after administration): 36.2 ± 5.6%
